# Tested on: Radical scavenging activity
# Assay: Inhibition of superoxide radical scavenging activity
# Type: functional
row,Compound,IC50 [µM]
1,O=c1c(Br)cc2c(-c3ccccc3S(=O)(=O)O)c3cc(Br)c(O)c(O)c3oc-2c1O [BROMOPYROGALLOL RED],51.5
2,CC1=C/C(=C(/c2cc(C)c(O)c(C(=O)O)c2)c2c(Cl)ccc(S(=O)(=O)O)c2Cl)C=C(C(=O)O)C1=O [CHROME AZUROL S],> 250
3,CC1=C/C(=C(/c2cc(C)c(O)c(C(=O)O)c2)c2ccccc2S(=O)(=O)O)C=C(C(=O)O)C1=O [ERIOCHROME CYANINE R],> 250
4,O=C1C=C/C(=C(/c2ccc(O)c(O)c2)c2ccccc2S(=O)(=O)O)C=C1O [PYROCATECHOL VIOLET],120
5,O=c1ccc2c(-c3ccccc3S(=O)(=O)O)c3ccc(O)c(O)c3oc-2c1O [PYROGALLOL RED],88

# Reference: ChEMBL document CHEMBL1148640, “Biological evaluation, chelation, and molecular modeling studies of novel metal-chelating inhibitors of NF-kappaB-DNA binding: structure activity relationships” (J Med Chem, 2006)
